Columns and labels:
[1] = system: HOP-92 (Non-Small Cell Lung Cancer); test: NCI one dose, HOP-92; format: cell-based, human; details: HOP-92, 1.00E-5 Molar one dose
Description: (§1) 3.4. Cell Proliferation Assay
(§2) Selected compounds were tested on a panel of 60 human cancer cell lines at the National Cancer Institute (NCI), Germantown, MD, USA. The cytotoxicity studies were conducted using a 48 h exposure protocol using the sulfo-rhodamine B assay.

SNB-75 (CNS Cancer) = test: NCI one dose, SNB-75; format: cell-based, human; details: SNB-75, 1.00E-5 Molar one dose
Description: as §1, §2

UACC-257 melanoma cells = test: NCI one dose, UACC-257; format: cell-based, human; details: UACC-257, 1.00E-5 Molar one dose
Description: as §1, §2

[2] = target: human farnesyltransferase (FTase) (Homo sapiens, UniProt P49354+P49356); test: FTase inhibitory assay (fluorescence, Dansyl-GCVLS); format: biochemical; details: for % FTI: inhibition of human FTase at 100 μM of tested compound, mean of two experiments
Outline: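 Partially purified recombinant FTase with Dansyl-GCVLS and farnesyl pyrophosphate in Tris/HCl pH 7.5 (DTT, MgCl2, ZnCl2, octyl-glucoside); fluorescence (ex 340/em 486 nm) read 15 min at 30 °C. IC50 by regression for compounds inhibiting >60% at 100 µM; kinetics varied FPP (Dns-GCVLS 2.5 μM) or peptide (FPP 10 μM).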

[3] = system: NCI-H522 non-small cell lung cancer cells; test: NCI cell proliferation, NCI-H522; format: cell-based, human; details: for inhibition at 10 µM: Homo sapiens, NCI-H522, read-out: % Cancer cell growth Inhibition (NCI-H522); for Growth Percent: NCI-H522, 1.00E-5 Molar one dose
Description: as §1, §2

UACC-62 (Melanoma) = test: NCI one dose, UACC-62; format: cell-based, human; details: UACC-62, 1.00E-5 Molar one dose
Description: as §1, §2

OVCAR-3 (Ovarian Cancer) = test: NCI one dose, OVCAR-3; format: cell-based, human; details: OVCAR-3, 1.00E-5 Molar one dose
Description: as §1, §2

HCT-15 (Colon Cancer) = test: NCI one dose, HCT-15; format: cell-based, human; details: HCT-15, 1.00E-5 Molar one dose
Description: as §1, §2

LOX IMVI (Melanoma) = test: NCI one dose, LOX IMVI; format: cell-based, human; details: 1.00E-5 Molar one dose
Description: as §1, §2

SK-MEL-28 (Melanoma) = test: NCI one dose, SK-MEL-28; format: cell-based, human; details: SK-MEL-28, 1.00E-5 Molar one dose
Description: as §1, §2

HS 578T (Breast Cancer) = test: NCI one dose, HS 578T; format: cell-based, human; details: 1.00E-5 Molar one dose
Description: as §1, §2

BT-549 (Breast Cancer) = test: NCI one dose, BT-549; format: cell-based, human; details: BT-549, 1.00E-5 Molar one dose
Description: as §1, §2

[4] = system: HOP-62 (Non-Small Cell Lung Cancer); test: NCI one dose, HOP-62; format: cell-based, human; details: HOP-62, 1.00E-5 Molar one dose
Description: as §1, §2

[5] = system: NCI-H322M (Non-Small Cell Lung Cancer); test: NCI one dose, NCI-H322M; format: cell-based, human; details: 1.00E-5 Molar one dose
Description: as §1, §2

SK-OV-3 (Ovarian Cancer) = test: NCI one dose, SK-OV-3; format: cell-based, human; details: SK-OV-3, 1.00E-5 Molar one dose
Description: as §1, §2

SNB-19 (CNS Cancer) = test: NCI one dose, SNB-19; format: cell-based, human; details: SNB-19, 1.00E-5 Molar one dose
Description: as §1, §2

[6] = system: MDA-MB-468 breast cancer cells; test: NCI one dose, MDA-MB-468; format: cell-based, human; details: MDA-MB-468, 1.00E-5 Molar one dose
Description: as §1, §2

CCRF-CEM (Leukemia) = test: NCI one dose, CCRF-CEM; format: cell-based, human; details: 1.00E-5 Molar one dose
Description: as §1, §2

SK-MEL-2 (Melanoma) = test: NCI one dose, SK-MEL-2; format: cell-based, human; details: SK-MEL-2, 1.00E-5 Molar one dose
Description: as §1, §2

MCF7 (Breast Cancer) = test: NCI one dose, MCF7; format: cell-based, human; details: MCF7, 1.00E-5 Molar one dose
Description: as §1, §2

HT29 (Colon Cancer) = test: NCI one dose, HT29; format: cell-based, human; details: HT29, 1.00E-5 Molar one dose
Description: as §1, §2

SF-295 (CNS Cancer) = test: NCI one dose, SF-295; format: cell-based, human; details: SF-295, 1.00E-5 Molar one dose
Description: as §1, §2

OVCAR-5 (Ovarian Cancer) = test: NCI one dose, OVCAR-5; format: cell-based, human; details: OVCAR-5, 1.00E-5 Molar one dose
Description: as §1, §2

HCT-116 (Colon Cancer) = test: NCI one dose, HCT-116; format: cell-based, human; details: HCT-116, 1.00E-5 Molar one dose
Description: as §1, §2

ACHN (Renal Cancer) = test: NCI one dose, ACHN; format: cell-based, human; details: 1.00E-5 Molar one dose
Description: as §1, §2

[7] = system: EKVX (Non-Small Cell Lung Cancer); test: NCI one dose, EKVX; format: cell-based, human; details: 1.00E-5 Molar one dose
Description: as §1, §2

COLO 205 (Colon Cancer) = test: NCI one dose, COLO 205; format: cell-based, human; details: COLO 205, 1.00E-5 Molar one dose
Description: as §1, §2

Row | SMILES | Growth Percent [1] | Growth Percent (SNB-75 (CNS Cancer)) | Growth Percent (UACC-257 melanoma cells) | % FTI [2] | inhibition at 10 µM [3] | Growth Percent [3] | Growth Percent (UACC-62 (Melanoma)) | Growth Percent (OVCAR-3 (Ovarian Cancer)) | Growth Percent (HCT-15 (Colon Cancer)) | Growth Percent (LOX IMVI (Melanoma)) | Growth Percent (SK-MEL-28 (Melanoma)) | Growth Percent (HS 578T (Breast Cancer)) | Growth Percent (BT-549 (Breast Cancer)) | Growth Percent [4] | Growth Percent [5] | Growth Percent (SK-OV-3 (Ovarian Cancer)) | Growth Percent (SNB-19 (CNS Cancer)) | Growth Percent [6] | Growth Percent (CCRF-CEM (Leukemia)) | Growth Percent (SK-MEL-2 (Melanoma)) | other results
1 | C[C@@]12SC[C@@H](C(=O)NCc3ccccc3)N1C(=O)c1ccccc12 [4bA] | 83.94% | 88.09% | 79.51% | 49% | 25% | 74.90% | 97.03% | 119.90% | 98.84% | 101.57% | 105.22% | 100.47% | 106.90% | 100.09% | 96.63% | 102.08% | 100.20% | 99.04% | 95.36% | 92.83% | Growth Percent (MCF7 (Breast Cancer)): 96.64%; Growth Percent (HT29 (Colon Cancer)): 80.95%; Growth Percent (SF-295 (CNS Cancer)): 98.04%; Growth Percent (OVCAR-5 (Ovarian Cancer)): 97.87%; Growth Percent (HCT-116 (Colon Cancer)): 97.31%; Growth Percent (ACHN (Renal Cancer)): 102.90%; Growth Percent [7]: 104.65%; Growth Percent (COLO 205 (Colon Cancer)): 108.00%
2 | C[C@@]12SC[C@@H](C(=O)NCc3ccccc3Br)N1C(=O)c1ccccc12 [4bB] | 88.23% | 92.47% | 75.54% | 39% | 22% | 78.46% | 82.12% | 111.49% | 95.65% | 97.04% | 104.28% | 91.10% | 107.51% | 99.61% | 99.70% | 88.35% | 100.80% | 88.64% | 88.50% | 85.75% | Growth Percent (MCF7 (Breast Cancer)): 87.26%; Growth Percent (HT29 (Colon Cancer)): 83.02%; Growth Percent (SF-295 (CNS Cancer)): 92.26%; Growth Percent (OVCAR-5 (Ovarian Cancer)): 93.99%; Growth Percent (HCT-116 (Colon Cancer)): 104.70%; Growth Percent (ACHN (Renal Cancer)): 106.88%; Growth Percent [7]: 106.14%; Growth Percent (COLO 205 (Colon Cancer)): 111.70%
3 | C[C@@]12SC[C@@H](C(=O)NCc3ccccc3C(F)(F)F)N1C(=O)c1ccccc12 [4bC] | 87.86% | 96.49% | 73.01% | 58% | 19% | 80.71% | 87.36% | 115.46% | 100.40% | 102.39% | 111.34% | 94.37% | 104.97% | 97.48% | 101.48% | 100.95% | 103.86% | 101.77% | 88.01% | 87.91% | Growth Percent (MCF7 (Breast Cancer)): 90.83%; Growth Percent (HT29 (Colon Cancer)): 79.15%; Growth Percent (SF-295 (CNS Cancer)): 93.93%; Growth Percent (OVCAR-5 (Ovarian Cancer)): 102.51%; Growth Percent (HCT-116 (Colon Cancer)): 89.85%; Growth Percent (ACHN (Renal Cancer)): 106.49%; Growth Percent [7]: 104.01%; Growth Percent (COLO 205 (Colon Cancer)): 104.03%
4 | C[C@@]12SC[C@@H](C(=O)NCc3cccc(C(F)(F)F)c3)N1C(=O)c1ccccc12 [4bD] | 88.94% | 93.18% | 74.68% | 51% | 31% | 68.93% | 87.82% | 109.46% | 95.74% | 100.31% | 108.59% | 96.99% | 100.02% | 90.69% | 100.14% | 97.14% | 99.21% | 97.93% | 89.45% | 85.25% | Growth Percent (MCF7 (Breast Cancer)): 85.93%; Growth Percent (HT29 (Colon Cancer)): 78.21%; Growth Percent (SF-295 (CNS Cancer)): 92.24%; Growth Percent (OVCAR-5 (Ovarian Cancer)): 104.21%; Growth Percent (HCT-116 (Colon Cancer)): 87.94%; Growth Percent (ACHN (Renal Cancer)): 95.88%; Growth Percent [7]: 98.64%; Growth Percent (COLO 205 (Colon Cancer)): 104.27%
5 | COc1cccc(CNC(=O)[C@@H]2CS[C@@]3(C)c4ccccc4C(=O)N23)c1 [4bE] | 101.27% | 98.09% | 81.73% | 56% | 33% | 67.45% | 91.91% | 115.54% | 102.87% | 101.37% | 112.92% | 95.18% | 110.64% | 98.17% | 102.58% | 101.46% | 102.99% | 93.38% | 94.80% | 97.24% | Growth Percent (MCF7 (Breast Cancer)): 89.13%; Growth Percent (HT29 (Colon Cancer)): 89.19%; Growth Percent (SF-295 (CNS Cancer)): 97.61%; Growth Percent (OVCAR-5 (Ovarian Cancer)): 110.33%; Growth Percent (HCT-116 (Colon Cancer)): 104.89%; Growth Percent (ACHN (Renal Cancer)): 106.16%; Growth Percent [7]: 112.43%; Growth Percent (COLO 205 (Colon Cancer)): 115.50%
6 | COc1ccc(CNC(=O)[C@@H]2CS[C@@]3(C)c4ccccc4C(=O)N23)cc1 [4bF] | 80.27% | 94.53% | 87.83% | 67% | 28% | 72.32% | 93.24% | 108.61% | 101.20% | 102.28% | 106.19% | 96.39% | 106.11% | 95.58% | 107.95% | 106.02% | 99.83% | 86.72% | 93.94% | 93.38% | IC50 ([2]; human FTase in vitro): 9.21 µM; Growth Percent (MCF7 (Breast Cancer)): 90.37%; Growth Percent (HT29 (Colon Cancer)): 84.10%; Growth Percent (SF-295 (CNS Cancer)): 93.44%; Growth Percent (OVCAR-5 (Ovarian Cancer)): 107.98%; Growth Percent (HCT-116 (Colon Cancer)): 93.74%; Growth Percent (ACHN (Renal Cancer)): 101.13%; Growth Percent [7]: 106.83%; Growth Percent (COLO 205 (Colon Cancer)): 108.39%
